According to patent US5661129A, “Organic nitrates containing a disulfide group as cardiovascular agents” (Schwarz Pharma AG, priority 1993, dated 1997):
pEC50: −log10 of the molar value.

What was measured:
[1] = continuous intake of high doses; classical organic nitrates and EP compounds; cited from earlier work
[2] = system: arterial, central venous and pulmonary artery blood pressure in a conscious dog; test: Effects on blood pressure in a conscious dog; format: in vivo; design: unit not given here; conditions: intravenous, 13.4 μg/kg disulphide compounds
Experimental: The SAP was measured using a tip catheter transducer inserted into the aorta via the femoral artery, and the CVP and the PAP were measured using a Swan-Ganz catheter which was inserted via the left jugular vein and whose catheter tips were advanced as far as the pulmonary artery and the right atrium respectively and through whose lumens the particular pressure was passed to Statham® pressure transducers. To quantify the lowering of blood pressure elicited by the compound according to the invention, the areas under the curves (AUC) of the recorded changes in blood pressure were determined. Table 2 contains the AUC values for the relevant lowering of blood pressure after intravenous administration of 13.4 μg/kg of the disulphide compounds according to the invention and after intravenous administration of 26.8 μg/kg isosorbide 5-mononitrate (5-ISMN).

[3] = system: isolated rat aortic rings; test: Vasorelaxation in vitro on isolated rat aortic rings precontracted with phenylephrine; format: cell-based; conditions: rat aortic rings precontracted with 2×10^-7 mol/l phenylephrine; cumulative addition; n = 3-6; read-out: EC50 (concentration which leads to a 50% relaxation of the precontracted vascular ring)
Source text: The vasorelaxant effect of the compounds of the general formula I was investigated in vitro on isolated rat aortic rings. For this purpose, rats were anaesthetized and then the thoracic aorta was removed, freed of adipose and adventitious tissue and divided into annular segments about 5 mm wide. The aortic rings were transferred into temperature-controlled baths containing Tyrodes' solution through which 5% CO2 /95% O2 was passed, and were subjected to a preload of 2 g. While continuously recording the change in force, the vascular rings were precontracted after equilibration with 2×10^-7 mol/l phenylephrine for 90 minutes. After a stable contraction level was reached, the nitrato compounds were cumulatively added to the vessel bath liquid, the next higher concentration in each case being added only after a stable relaxation level had been reached. The concentration of the particular compound which leads to a 50% relaxation of the precontracted vascular ring (EC50) was found from the resulting concentration-effect plots. Table 1 contains the EC50 values found in this way for selected exemplary compounds.

O=[N+]([O-])O[C@@H]1CO[C@H]2[C@@H]1OC[C@@H]2O [Example 5-ISMN, isosorbide 5-mononitrate, reference compound]
nitrate tolerance (attenuation of the effect) [1]: distinct attenuation of the effect, nitrate tolerance

CC(C)(CO[N+](=O)[O-])C(=O)N[C@@H](CSSC[C@H](NC(=O)C(C)(C)CO[N+](=O)[O-])C(=O)O)C(=O)O [N,N'-di(3-nitratopivaloyl)-L-cystine]
AUC (CVP), lowering of central venous blood pressure [2]: 67.9 | AUC (PAP), lowering of pulmonary artery blood pressure [2]: 2.7 | AUC (SAP), lowering of systolic arterial blood pressure [2]: 17.3 | pEC50 [3]: 3.92

O=[N+]([O-])OCC(CO[N+](=O)[O-])O[N+](=O)[O-] [glycerol trinitrate]
nitrate tolerance (attenuation of the effect) [1]: distinct attenuation of the effect, nitrate tolerance

CC(C)(C)OC(=O)[C@H](CSSC[C@H](NC(=O)C(C)(C)CO[N+](=O)[O-])C(=O)OC(C)(C)C)NC(=O)C(C)(C)CO[N+](=O)[O-] [N,N'-di(3-nitratopivaloyl)-L-cystine di-tert.-butyl ester]
pEC50 [3]: 4.23

CCOC(=O)[C@H](CSSC[C@H](NC(=O)C(C)(C)CO[N+](=O)[O-])C(=O)OCC)NC(=O)C(C)(C)CO[N+](=O)[O-] [N,N'-di(3-nitratopivaloyl)-L-cystine diethyl ester]
AUC (CVP), lowering of central venous blood pressure [2]: 85.7 | AUC (PAP), lowering of pulmonary artery blood pressure [2]: 12.0 | AUC (SAP), lowering of systolic arterial blood pressure [2]: 94.1 | pEC50 [3]: 5.82

CNC(=O)[C@H](CSSC[C@H](NC(=O)C(C)(C)CO[N+](=O)[O-])C(=O)NC)NC(=O)C(C)(C)CO[N+](=O)[O-] [N,N'-di(3-nitratopivaloyl)-L-cystine-di(N-methylamide)]
AUC (CVP), lowering of central venous blood pressure [2]: 33.7 | AUC (PAP), lowering of pulmonary artery blood pressure [2]: 3.5 | AUC (SAP), lowering of systolic arterial blood pressure [2]: 41.9 | pEC50 [3]: 4.62

CC(C)(CO[N+](=O)[O-])C(=O)N[C@@H](CSSC[C@H](NC(=O)C(C)(C)CO[N+](=O)[O-])C(N)=O)C(N)=O [N,N'-di(3-nitratopivaloyl)-L-cystinediamide]
AUC (CVP), lowering of central venous blood pressure [2]: 46.9 | AUC (PAP), lowering of pulmonary artery blood pressure [2]: 28.1 | AUC (SAP), lowering of systolic arterial blood pressure [2]: 55.3 | pEC50 [3]: 4.52

CC(C)(CO[N+](=O)[O-])C(=O)N[C@@H](CSSC[C@H](NC(=O)C(C)(C)CO[N+](=O)[O-])C(=O)N1CCCCC1)C(=O)N1CCCCC1 [N,N'-di(3-nitratopivaloyl)-L-cystinedipiperidide]
AUC (CVP), lowering of central venous blood pressure [2]: 36.9 | AUC (PAP), lowering of pulmonary artery blood pressure [2]: 18.5 | AUC (SAP), lowering of systolic arterial blood pressure [2]: 10.4 | pEC50 [3]: 4.00
